Experimental data as given in PMC7160673, “A Degenerate Peptide Library Approach to Reveal Sequence Determinants of Methyllysine-Driven Protein Interactions” (Frontiers in Cell and Developmental Biology, 2020).

What was measured:
Type in all cases: binding
53BP1 TTD = assay: Histone peptide microarray, 53BP1 TTD; details: 53BP1 TTD hits, average signal per peptide
Protocol: (§1) Peptide microarrays were fabricated using an Aushon 2470 microarrayer and used as described ([Cornett et al., 2017]) with the following modifications. Protein and antibody hybridization steps were performed in buffer containing 25 mM HEPES pH 7.5, 100 mM NaCl, 0.5% BSA (w/v), and 0.1% NP-40. Slides were washed 3 × 5 min in PBS supplemented with 0.1% Tween-20 between each hybridization step. Antibodies used were primary anti-GST (Sigma #7781, 1:2,000 dilution) and an AlexaFluor 647-labeled secondary antibody (Life Technologies A-21245, 1:5,000 dilution). […] Full lists of peptides queried by array analysis are in Supplementary Table S2.

[1] = test system: Millipore #07-449, anti-H3K27me3; assay: Histone peptide microarray, Millipore 07-449; details: Millipore 07-449 (anti-H3K27me3) hits, average signal per peptide
Protocol: as §1

[2] = test system: Active Motif #39161, anti-H3K9me3; assay: Histone peptide microarray, Active Motif 39161; details: Active Motif 39161 (anti-H3K9me3) hits
Protocol: as §1

[3] = test system: Abcam #ab8895, anti-H3K4me1; assay: Histone peptide microarray, Abcam ab8895; details: Abcam ab8895 (anti-H3K4me1) hits, average signal per peptide
Protocol: as §1

CST 9733 (anti-H3K27me3) = assay: Histone peptide microarray, CST 9733; details: histone peptide array signal normalized to the highest peptide average per subarray, hits; CST 9733 LOT:14 dilution 1:5,000
Protocol: as §1

“(Biot)Peg-MPKDIQLARRIRGERA-OH [H3.1.1(120-135)]” was tested, and the “Avg Signal” value (53BP1 TTD) was 0.05797, the “Avg Signal” value [1] was 0.0002349 and the “Avg Signal” value [2] was 0.000221.

In the case of “ACitTK(Ac)QTARK(Ac)STGGK(Ac)APRK(Ac)QL-K(Biot)-NH2 [H3.1Cit2K4acK9acK14acK18ac]”, the “Avg Signal” value (53BP1 TTD) is reported as 0.04568 and the “Avg Signal” value [2] is reported as 0.003876.

“AR(Me2a)TK(Ac)QTARK(Ac)STGGK(Ac)APRK(Ac)QL-K(Biot)-NH2 [H3.1R2me2aK4acK9acK14acK18ac]” was tested, and the “Avg Signal” value (53BP1 TTD) was 0.1712, the “Avg Signal” value [3] was 0.0001948 and the “Avg Signal” value [2] was 0.00047.

In the case of “ARTK(Ac)QTARK(Ac)STGGK(Ac)APRKQL-K(Biot)-NH2 [H3.1K4acK9acK14ac]”, the “Avg Signal” value (53BP1 TTD) is reported as 0.1165.

“ARTK(Ac)QTARK(Ac)STGGKAPRK(Ac)QL-K(Biot)-NH2 [H3.1K4acK9acK18ac]” was tested, and the “Avg Signal” value (53BP1 TTD) was 0.1542, the “Avg Signal” value [1] was 0.0004417 and the “Avg Signal” value [2] was 0.011.

For “ARTK(Ac)QTARK(Ac)STGGKAPRKQL-K(Biot)-NH2 [Peptide H3.1K4acK9ac]”, the “Avg Signal” value (53BP1 TTD) was 0.05583.

With “ARTK(Ac)QTARK(Ac)pSTGGK(Ac)APRK(Ac)QL-K(Biot)-NH2 [H3.1K4acK9acS10pK14acK18ac]” the “Avg Signal” value (53BP1 TTD) was 0.04385.

With “ARTK(Ac)QTARKSTGGK(Ac)APRKQL-K(Biot)-NH2 [H3.1K4acK14ac]” the “Avg Signal” value (53BP1 TTD) was 0.2064, the “Avg Signal” value [3] was 0.001132 and the “Avg Signal” value [2] was 0.0007938.

“ARTK(Ac)QTARKSTGGKAPRKQL-K(Biot)-NH2 [Peptide H3.1K4ac]” was tested, and the “Avg Signal” value (53BP1 TTD) was 0.1441 and the “Avg Signal” value [2] was 0.0285.

In the case of “ARTK(Me3)QTARKST-Peg-Biot [H3.1K4me3 H3.1(1-11)]”, the “Avg Signal” value (CST 9733 (anti-H3K27me3)) is reported as 1.495e-5.

“ARTK(Me3)QTARKSTGGKAPRKQL-K(Biot)-NH2 [H3.1K4me3 H3.1(1-20)]” was tested, and the “Avg Signal” value (CST 9733 (anti-H3K27me3)) was 0.001817.

In the case of “ARTKQTARK(Ac)STGGKAPRK(Ac)QL-K(Biot)-NH2 [H3.1K9acK18ac]”, the “Avg Signal” value (53BP1 TTD) is reported as 0.0364, the “Avg Signal” value [1] is reported as 0.006063 and the “Avg Signal” value [3] is reported as 0.2595. The “Avg Signal” value [2] was 0.0006444.

In the case of “ARTKQTARK(Ac)STGGKAPRKQL-K(Biot)-NH2 (not fully specified; K9 acetyl; K(Biot)-NH2) [Peptide H3.1K9ac]”, the “Avg Signal” value (53BP1 TTD) is reported as 0.1022, the “Avg Signal” value [3] is reported as 0.168 and the “Avg Signal” value [2] is reported as 0.0003455.

In the case of “ARTKQTARK(Ac)pSTGGKAPRKQL-K(Biot)-NH2 [Peptide H3.1K9acS10p]”, the “Avg Signal” value (53BP1 TTD) is reported as 0.0481 and the “Avg Signal” value [3] is reported as 0.1852.

In the case of “ARTKQTARK(Me2)pSTGGKAPRKQL-K(Biot)-NH2 [H3.1K9me2S10p]”, the “Avg Signal” value (53BP1 TTD) is reported as 0.3509 and the “Avg Signal” value [3] is reported as 0.1568.

In the case of “ARTKQTARK(Me)pSTGGKAPRKQL-K(Biot)-NH2 [H3.1K9me1S10p]”, the “Avg Signal” value (53BP1 TTD) is reported as 0.1506 and the “Avg Signal” value [3] is reported as 0.1234.

In the case of “ARTKQTARKSTGGK(Ac)APRK(Ac)QL-K(Biot)-NH2 [H3.1K14acK18ac]”, the “Avg Signal” value (53BP1 TTD) is reported as 0.1587 and the “Avg Signal” value [3] is reported as 0.1741.

With “ARTKQTARKpSTGGKAPRKQL-K(Biot)-NH2 [Peptide H3.1S10p]” the “Avg Signal” value (53BP1 TTD) was 0.0218, the “Avg Signal” value [1] was 0.004546 and the “Avg Signal” value [3] was 0.06974.

“ARTKQpTARK(Ac)STGGK(Ac)APRK(Ac)QL-K(Biot)-NH2 [H3.1T6pK9acK14acK18ac]” was tested, and the “Avg Signal” value (53BP1 TTD) was 0.04664, the “Avg Signal” value [1] was 0.004763 and the “Avg Signal” value [2] was 0.002409.

With “ARTKQpTARKSTGGKAPRKQL-K(Biot)-NH2 [Peptide H3.1T6p]” the “Avg Signal” value (53BP1 TTD) was 0.07045, the “Avg Signal” value [3] was 0.0003583 and the “Avg Signal” value [2] was 0.0005946.

In the case of “ARpTK(Me3)QTARK(Ac)STGGK(Ac)APRK(Ac)QL-K(Biot)-NH2 [H3.1T3pK4me3K9acK14acK18ac]”, the “Avg Signal” value (53BP1 TTD) is reported as 0.05883, the “Avg Signal” value [1] is reported as 0.007748 and the “Avg Signal” value [2] is reported as 0.05484.

With “ARpTK(Me3)QTARKSTGGKAPRKQL-K(Biot)-NH2 [Peptide H3.1T3pK4me3]” the “Avg Signal” value (53BP1 TTD) was 0.0446, the “Avg Signal” value [1] was 9.707e-5 and the “Avg Signal” value [2] was 0.008533.

“ATKAARKSAPATGGVK(Me3)KPHRYRPG-GK(Biotin)-OH [H3.1K36me3 H3.1(21-44)]” was tested, and the “Avg Signal” value (CST 9733 (anti-H3K27me3)) was 0.0006093.

In the case of “Ac-APRKQLATKAARK(Me)SAPSTGG--Peg-Biot [Peptide H3.3K27me1]”, the “Avg Signal” value (53BP1 TTD) is reported as 0.1127, the “Avg Signal” value [1] is reported as 0.003394 and the “Avg Signal” value [3] is reported as 0.01351.

With “Ac-GK(Ac)GGAK(Ac)RHRK(Me2)VLRDNIQ-Peg-Biot [H4K12acK16acK20me2]” the “Avg Signal” value (CST 9733 (anti-H3K27me3)) was 0.0001487.

For “Ac-GK(Ac)GGAK(Ac)RHRKVLRDNIQ-Peg-Biot [H4K12acK16ac H4(11-27)]”, the “Avg Signal” value (CST 9733 (anti-H3K27me3)) was 3.787e-5.

For “Ac-GKGGAKRHRK(Me)VLRDNIQ-Peg-Biot [Peptide H4K20me1]”, the “Avg Signal” value (53BP1 TTD) was 0.5244, the “Avg Signal” value [3] was 0.003452 and the “Avg Signal” value [2] was 7.157e-5.

“Ac-IAQDFK(Me)TDLRF-Peg-K(Biot)-NH2 [Peptide H3.1K79me1]” was tested, and the “Avg Signal” value (53BP1 TTD) was 0.009736 and the “Avg Signal” value [2] was 0.002481.

For “Ac-IAQDFKTDLRF-Peg-K(Biot)-NH2 [H3.1.1(74-84)N-ac]”, the “Avg Signal” value (53BP1 TTD) was 0.06248 and the “Avg Signal” value [2] was 0.005943.

For “Ac-SAAKASQSRSAKAGLT-Peg-Biotin [yH2A(10-25)]”, the “Avg Signal” value (CST 9733 (anti-H3K27me3)) was 6.218e-5.

For “Ac-SGR(Me2a)GK(Ac)QGGKARAKAKTR-Peg-Biot [H2AR3me2aK5ac]”, the “Avg Signal” value (53BP1 TTD) was 0.03444, the “Avg Signal” value [3] was 0.0107 and the “Avg Signal” value [2] was 0.03211.

For “Ac-SGRGK(Ac)GGK(Ac)GLGK(Ac)GGAK(Ac)RHRKVLR-Peg-Biot [H4K5acK8acK12acK16ac]”, the “Avg Signal” value (53BP1 TTD) was 0.1158 and the “Avg Signal” value [3] was 0.005523.

“Ac-SGRGK(Ac)GGK(Ac)GLGK(Ac)GGAKRHRKVLR-Peg-Biot [H4K5acK8acK12ac]” was tested, and the “Avg Signal” value (53BP1 TTD) was 0.2078 and the “Avg Signal” value [1] was 0.002971.

For “Ac-SGRGK(Ac)GGKGLGKGGAKRHRKVLR-Peg-Biot [Peptide H4K5ac]”, the “Avg Signal” value (53BP1 TTD) was 0.009315, the “Avg Signal” value [3] was 0.0009033 and the “Avg Signal” value [2] was 0.04019.

In the case of “Ac-SGRGK(Ac)TGGKARAKAKSR-Peg-Biotin [Peptide H2A.XK5ac]”, the “Avg Signal” value (CST 9733 (anti-H3K27me3)) is reported as 0.0001351.

With “Ac-SGRGKGGK(Ac)GLGKGGAK(Ac)RHRKVLR-Peg-Biot [Peptide H4K8acK16ac]” the “Avg Signal” value (53BP1 TTD) was 0.2331, the “Avg Signal” value [3] was 0.002102 and the “Avg Signal” value [2] was 0.003751.

In the case of “Ac-SGRGKGGK(Ac)GLGKGGAKRHRKVLR-Peg-Biot [Peptide H4K8ac]”, the “Avg Signal” value (53BP1 TTD) is reported as 0.08696, the “Avg Signal” value [3] is reported as 0.01217 and the “Avg Signal” value [2] is reported as 0.001167.

With “Ac-SGRGKGGKGLGK(Ac)GGAK(Ac)RHRKVLR-Peg-Biot [H4K12acK16ac H4(1-23)]” the “Avg Signal” value (CST 9733 (anti-H3K27me3)) was 3.927e-5.

With “Ac-SGRGKQGGKARAKAKTR-Peg-Biot [H2A(1-17)]” the “Avg Signal” value (53BP1 TTD) was 0.1243.

“Ac-pSGCitGK(Ac)QGGKARAKAKTR-Peg-Biot [H2AS1pCit3K5ac]” was tested, and the “Avg Signal” value (53BP1 TTD) was 0.04418, the “Avg Signal” value [1] was 0.006425 and the “Avg Signal” value [3] was 0.004421. For the same substance, the “Avg Signal” value [2] was 0.0032.

For “Ac-pSGRGK(Ac)QGGK(Ac)ARAK(Ac)AK(Ac)TR-Peg-Biot [H2AS1pK5acK9acK13acK15ac]”, the “Avg Signal” value (53BP1 TTD) was 0.09024.

In the case of “Ac-pSGRGK(Ac)QGGKARAKAKTR-Peg-Biot [Peptide H2AS1pK5ac]”, the “Avg Signal” value (53BP1 TTD) is reported as 0.01536 and the “Avg Signal” value [2] is reported as 0.009305.

For “IAQDFKTDLRF-Peg-K(Biot)-NH2 [H3.1.1(74-84)]”, the “Avg Signal” value (53BP1 TTD) was 0.02 and the “Avg Signal” value [2] was 0.003353.

“KSAPSTGGVK(Ac)KPHRYKPGT-GG-K(Biot)-NH2 [yH3K36ac]” was tested, and the “Avg Signal” value (53BP1 TTD) was 0.06747.

With “KSAPSTGGVK(Me2)KPHRYKPGT-GG-K(Biot)-NH2 [yH3K36me2]” the “Avg Signal” value (53BP1 TTD) was 0.8217.

“KSAPSTGGVKKPHRYKPGT-GG-K(Biot)-NH2 (C-terminal GG-K(biotin) amide) [yH3.1(27-45)]” was tested, and the “Avg Signal” value (53BP1 TTD) was 0.1127.

“PEPAK(Me)SAPAPKKGSKKAVTKAQKK-Peg-Biot [Peptide H2BK5me1]” was tested, and the “Avg Signal” value (53BP1 TTD) was 0.1012, the “Avg Signal” value [1] was 0.01581 and the “Avg Signal” value [3] was 0.004522. For the same substance, the “Avg Signal” value [2] was 0.004346.

With “pSGRGK(Ac)QGGK(Ac)ARAK(Ac)AK(Ac)TR-Peg-Biot [H2AS1pK5acK9acK13acK15ac(noN-ac)]” the “Avg Signal” value (53BP1 TTD) was 0.06769, the “Avg Signal” value [1] was 0.001023 and the “Avg Signal” value [3] was 0.0006853.
